This passage reports EC50 results from PubChem BioAssay AID2400 (Broad Institute, 2010).

The assay concerns S. cerevisiae GRE-beta-galactosidase reporter, luminescence, 75 min. The assay can be described thus: steroid-induced GRE reporter decrease in yeast – S. cerevisiae, luminescence, Hsp90 inhibitor project, dose response (AID 2400).

Several values for one entry are separate records, joined by “and”; a condition that tells them apart may be missing. Identical values can stand only once. Activity calls are given as the source filed them.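 How the source made its calls: active means fitted EC50 at or below ten times the top tested concentration; inconclusive means flat fit with activity between 30% and 70%, or an unusable fit; inactive means EC50 beyond ten times the top tested concentration.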

For `NC(=NCCCCCCN=C(N)/N=C(\N)Nc1ccc(Cl)cc1)/N=C(\N)Nc1ccc(Cl)cc1`, the EC50 is > 16 µM (inactive) and > 15 µM (inactive).

In the case of `CC1CCC(C(C)C)C(OC(=O)Cn2c(-c3ccc(Br)cc3)[n+](C)c3ccccc32)C1` (configuration not stated), the EC50 was > 16 µM (inactive).
